Literature values, collected in PMC2885594 (Current Chemical Genomics, 2010).

Test system: TPH1
Conditions: ref [30]

## N[C@@H](Cc1c[nH]c2ccc(O)cc12)C(=O)O [5-HTP]
  mechanism of inhibition versus phenylalanine: competitive
  mechanism of inhibition versus pterin: uncompetitive
